Measurements published in US20250186450A1, “COMBINATION THERAPY COMPRISING DGK INHIBITORS and PD-1/PD-L1 INHIBITORS” (Incyte Corporation, priority 2023, published 2025).
Entries after “also recorded” stand apart in the source; their conditions may differ.

Legend:
[1] = system: MC38 syngeneic tumor model; experiment: MC38 syngeneic tumor model, DGK inhibitor plus anti-PD-1 (RMP1-14); assay type: in vivo, C57Bl/6 mice
Experimental: The in vivo effect of combining Compound 1 plus anti-PD-1 (RMP1-14, Bio X Cell) was assessed in the MC38 (CRL-1642, ATCC, Manassas, VA) syngeneic tumor model (see FIG. 3) in 6 to 8 weeks old C57Bl/6 mice (Jackson laboratories). Compound 1 was suspended in 5% N,N-dimethylacetamide (DMAC)+50 mM Citrate buffer in 0.5% methyl cellulose for oral administration and RMP1-14 was suspended in saline for intraperitoneal administration. Briefly, the left flank of the mice was shaved the day prior to subcutaneous inoculation with 2×10^6 MC38 cells suspended in PBS. On day 7, tumor dimensions were measured by Vernier calipers, and volume estimated by the formula Volume=[L (long dimension)×W^2 (short dimension)]/2. Mice were randomized into 6 groups of 10 mice of approximate mean volume (˜160 mm^3). Tumors were measured 3 times per week for the duration of the study. Starting day 7, mice were dosed with (i) vehicle; (ii) 250 μg/mouse of RMP1-14; (iii) 10 mg/kg of Compound 1; (iv) 1 mg/kg of Compound 1; (v) 10 mg/kg of Compound 1 and 250 μg/mouse of RMP1-14; or (vi) 1 mg/kg of Compound 1 and 250 μg/mouse of RMP1-14. Compound 1 was administered orally once daily (QD) for 12 days, while RMP1-14 was dosed every 5 days (for a total of 3 doses).
The in vivo effect of combining Compound 2 plus anti-PD-1 (RMP1-14, Bio X Cell) was assessed in the MC38 (CRL-1642, ATCC, Manassas, VA) syngeneic tumor model in 6 to 8 weeks old C57Bl/6 mice (Jackson laboratories). Compound 2 was suspended in 5% N,N-dimethylacetamide (DMAC)+50 mM Citrate buffer in 0.5% methyl cellulose for oral administration and RMP1-14 was suspended in saline for intraperitoneal administration. Briefly, the left flank of the mice was shaved the day prior to subcutaneous inoculation with 2×10^6 MC38 cells suspended in PBS. On day 7, tumor dimensions were measured by Vernier calipers, and volume estimated by the formula Volume=[L (long dimension)×W^2 (short dimension)]/2. Mice were randomized into 6 groups of 10 mice of approximate mean volume (˜130 mm^3). Tumors were measured 3 times per week for the duration of the study. Starting day 7, mice were dosed with (i) vehicle; (ii) 250 μg/mouse of RMP1-14 (Anti-PD-1); (iii) 0.5 mg/kg of Compound 2 QD; (iv) 0.5 mg/kg of Compound 2 […] and 250 μg/mouse of RMP1-14; (v) 0.5 mg/kg of Compound 2 Q2D; (vi) 0.5 mg/kg of Compound 2 […] and 250 μg/mouse of RMP1-14; (vii) 1.5 mg/kg of Compound 2 QD; (viii) 1.5 mg/kg of Compound 2 QD and 250 μg/mouse of RMP1-14 (ix) 1.5 mg/kg of Compound 2 Q2D; (x) 1.5 mg/kg of Compound 2 Q2D and 250 μg/mouse of RMP1-14; (xi) 1.5 mg/kg of Compound 2 Q3D; or (xii) 1.5 mg/kg of Compound 2 Q3D and 250 μg/mouse of RMP1-14.
The in vivo effect of combining 2-(4-((2S,5R)-4-(bis(4-fluorophenyl)methyl)-2,5-dimethylpiperazin-1-yl)-1H-[1,2,4]triazolo[3,4-b]purin-1-yl)-N,N-dimethylethane-1-amine (i.e., Compound 3) plus anti-PD-1 (RMP1-14, Bio X Cell) was assessed in the MC38 (CRL-1642, ATCC, Manassas, VA) syngeneic tumor model in 6 to 8 weeks old C57Bl/6 mice (Jackson laboratories). Compound 3 was suspended in 5% N,N-dimethylacetamide (DMAC)+50 mM Citrate buffer in 0.5% methyl cellulose for oral administration and RMP1-14 was suspended in saline for intraperitoneal administration. Briefly, the left flank of the mice was shaved the day prior to subcutaneous inoculation with 2×10^6 MC38 cells suspended in PBS. On day 7, tumor dimensions were measured by Vernier calipers, and volume estimated by the formula Volume=[L (long dimension)×W^2 (short dimension)]/2. Mice were randomized into 6 groups of 10 mice of approximate mean volume (˜200 mm^3). Tumors were measured 3 times per week for the duration of the study. Starting day 7, mice were dosed with (i) vehicle; (ii) 250 μg/mouse of RMP1-14 (Anti-PD-1); (iii) 10 mg/kg of Compound 3 QD; (iv) 10 mg/kg of Compound 3 QD and 250 μg/mouse of RMP1-14; (v) 30 mg/kg of Compound 3 QD; or (vi) 30 mg/kg of Compound 3 QD and 250 μg/mouse of RMP1-14.

DGKζ = DGKζ (Homo sapiens (Human), UniProt Q13574); experiment: In vitro DGKζ inhibition assay (ADP-Glo); assay type: biochemical; settings: 0.4 nM DGKζ, 30 μM ATP, 20 μM DLG
Experimental: The DGKα and DGKζ biochemical reactions were performed using His-tagged human recombinant enzymes (Signal Chem, DGKα, #D21-10BH; DGKζ, #D30-10H)) and DLG (Dilauroyl-sn-glycerol) lipid substrate (Signal Chem, #D430-59). ADP-Glo assay was performed using ADP-Glo™ kinase Assay kit (Promega, #V9104). The reactions were carried out in assay buffer containing 40 mM Tris, pH 7.5, 0.1% CHAPS, 0.1% Prionex, 40 mM NaCl, 5 mM MgCl2, 1 mM CaCl2, and 1 mM DTT. DGKα reactions contained 0.1 nM DGKα, 50 μM ATP, and 20 μM DLG. And DGKζ reactions contained 0.4 nM DGKζ, 30 μM ATP, and 20 μM DLG.
For compound inhibition studies, 40 nL test compound in DMSO was added to wells of white polystyrene plates in 384-well (Greiner, #784075) or 1536-well format (Greiner, #782075). Compounds were added with top concentration of 2 mM with 11 point, 3-fold dilution series. Enzyme solution (contains 2×DGK enzyme concentration in 1× assay buffer) was added to the plate in 2 μL/well volume, followed by 2 μL/well of substrate solution (contains 2× concentration of ATP and DLG substrate in 1× assay buffer). Plates were then centrifuged for 1 min at 1200 RPM and sealed or lidded. For 4 μL reaction volume, test compounds were therefore diluted 100× to final top concentration of 20 μM. After 90 minute incubation, reactions were quenched by addition of 2 μL/well Promega ADP-Glo Reagent, followed by centrifugation and lidding. After 60 min incubation, 2 μL/well Promega Kinase Detection Reagent was added, plates centrifuged, and incubated for 30 min. Plates were then read using Luminescence method on BMG PHERAstar FSX plate reader. Percent inhibition was calculated and IC50s were determined using 4-parameter fit in Genedata Screener. Labcyte Echo acoustic dispenser was used for compound addition, and Formulatrix Tempest liquid handler was used for all reagent dispenses.

Sequence of DGKζ (Q13574 whole entry): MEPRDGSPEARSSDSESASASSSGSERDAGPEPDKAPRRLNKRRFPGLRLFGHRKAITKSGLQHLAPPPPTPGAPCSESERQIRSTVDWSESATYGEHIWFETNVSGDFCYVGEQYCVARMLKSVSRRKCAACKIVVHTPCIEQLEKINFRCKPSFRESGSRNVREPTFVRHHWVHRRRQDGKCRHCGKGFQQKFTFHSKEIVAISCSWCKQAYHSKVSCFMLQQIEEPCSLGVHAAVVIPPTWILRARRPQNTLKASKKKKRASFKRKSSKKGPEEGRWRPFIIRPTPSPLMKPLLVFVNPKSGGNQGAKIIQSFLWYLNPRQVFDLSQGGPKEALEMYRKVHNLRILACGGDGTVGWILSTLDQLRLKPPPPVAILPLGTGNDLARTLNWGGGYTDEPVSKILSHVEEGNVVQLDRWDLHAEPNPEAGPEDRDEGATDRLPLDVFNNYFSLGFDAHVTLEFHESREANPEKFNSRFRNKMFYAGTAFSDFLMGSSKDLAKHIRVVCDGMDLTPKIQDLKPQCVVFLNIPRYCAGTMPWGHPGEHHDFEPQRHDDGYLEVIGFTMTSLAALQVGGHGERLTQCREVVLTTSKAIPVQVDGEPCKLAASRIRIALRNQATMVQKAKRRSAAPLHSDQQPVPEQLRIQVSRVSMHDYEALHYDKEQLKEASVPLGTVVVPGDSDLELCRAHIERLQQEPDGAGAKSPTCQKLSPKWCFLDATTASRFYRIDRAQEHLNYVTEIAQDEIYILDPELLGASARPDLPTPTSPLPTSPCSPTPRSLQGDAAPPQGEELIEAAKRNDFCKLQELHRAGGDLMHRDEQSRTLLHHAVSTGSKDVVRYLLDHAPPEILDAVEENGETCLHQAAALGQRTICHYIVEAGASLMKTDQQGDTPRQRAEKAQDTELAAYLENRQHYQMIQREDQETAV

Row | IC50 (DGKζ) [µM] | SMILES | TGI, combined with anti-PD-1 mAb, vs anti-PD-1 mAb control group ([1]; 1.5 mg/kg Compound 2 and 250 μg/mouse RMP1-14, FIG. 7) | TGI, combined with anti-PD-1 mAb, vs vehicle control group ([1]; 0.5 and 1.5 mg/kg Compound 2, independent of dose schedule, and 250 μg/mouse RMP1-14, FIG. 7) | TGI, combination groups vs respective single-arm Compound 2 control group ([1]; 0.5 or 1.5 mg/kg Compound 2 and 250 μg/mouse RMP1-14) | TGI vs vehicle and anti-PD-1 mAb control groups ([1]; Compound 2 alone, 0.5 or 1.5 mg/kg, FIG. 7) | combination effect on tumor growth delay (Bliss Independence analysis) ([1]; 10 mg/kg or 1 mg/kg Compound 1 QD for 12 days with 250 μg RMP1-14, vs respective controls, FIG. 3)
1 | ≤ 0.02 | Cc1nc2c(N3C[C@@H](C)N(C(c4ccc(C(F)(F)F)cc4)C4CC(F)(F)C4)C[C@@H]3C)nc3nncn3c2n1C[C@@H]1CCCO1 (single isomer, unassigned) [Example 2] | significant TGI | statistically significant; also recorded: significant TGI | statistically significant | None of the single treatment arm groups dosed with Compound 2 0.5 or 1.5 mg/kg provided statistically significant TGI | 
2 | ≤ 0.02 | C[C@@H]1CN(c2nc3nncn3c3c2nnn3C[C@H]2CCCO2)[C@@H](C)CN1C(c1ccc(F)cc1)c1ccc(F)cc1 [Example 1, 4-((2S,5R)-4-(Bis(4-fluorophenyl)methyl)-2,5-dimethylpiperazin-1-yl)-1-(((R)-tetrahydrofuran-2-yl)methyl)-1H-[1,2,3]triazolo[4,5-e][1,2,4]triazolo[4,3-a]pyrimidine] |  |  |  |  | additive effect in tumor growth delay
